Consider 1 molecule from patent publication US7648966B2, “Mannose-6-phosphonate compounds for the treatment of inflammatory diseases” (Pharmaxis Pty Limited, priority 2003, dated 2010).

Test [1] has as its system passively transferred EAE. The experiment in a line: Passively transferred experimental autoimmune encephalomyelitis (EAE). The test is classed as in vivo, Lewis rats. To be noted: for Clinical Scores (individual rats): 45 mg/kg/day by mini-osmotic pump; for Clinical Scores (individual rats) / Mean Score: scale 0 to 5. Here is the method: To study the effect of the present agents in vivo on a disease that includes in its pathogenesis the migration of T lymphocytes into a specific tissue, the brain, experiments were performed in the Lewis rat model of passively transferred EAE. MBP-specific T lymphocyte cell lines were generated from the draining LNs of Lewis rats that had been immunized with MBP in CFA essentially according to the method of Ben-Nun et al., 1981, supra. Donor T lymphocytes were generated from female 10 to 12 week old Lewis rats weighing 150 to 200 g. These rats had been injected intradermally in each hind footpad with an emulsion of guinea pig MBP (gpMBP) prepared according to Deibler, G E et al., […]. Biochem. 2:139-165 (1972), incorporated herein by reference) in CFA ([…]). The adjuvant emulsion was prepared by emulsifying equal volumes of a mixture of light mineral oil (Sigma) and a solution of the gpMBP in normal saline (0.5 mg/ml) and Mycobacterium butyricum (4 mg/ml; Difco). Thus, each rat received was 50 μg of MBP and 400 μg of M. butyricum. Approximately 11 days following injection the rats were euthanized and the draining LNs (popliteal and inguinal) were removed aseptically by blunt dissection and placed into lymphocyte culture medium as described above. A single cell suspension was prepared from the LNs as described above for spleen. The cells were washed twice in culture medium and any red blood cells were lysed with ammonium chloride as above. These cells, at concentration of 5×10^6/ml were cultured for 72 hours in the presence of MBP (0.06 mg/ml) at 37° C. in a humidified atmosphere containing 7.5% carbon dioxide. The cells were collected and the lymphoblasts were isolated by centrifugation on a Ficoll (Pharmacia, Uppsala, Sweden) gradient in an identical manner to that described by Ben Nun et al. supra. The fraction containing 90% lymphoblasts was cultured further in complete DMEM to which was added (15% v/v) a culture supernatant containing a mixture of growth factors (supernatant of concanavalin A-stimulated lymphocytes), 10% fetal calf serum, nonessential amino acids (Bio-Lab, Jerusalem, Israel). No antigen (MBP) was added. The cells were originally plated in 100 mm petri dishes at a concentration of 2×10^5 cells/mil and replated every 3 or 4 days. Prior to transfer into Lewis rat recipients, the cells were restimulated with antigen, MBP (0.01 mg/ml), and irradiated syngeneic thymocytes, as antigen-presenting cells, for 4 days. These cultured, stimulated T lymphocytes were highly encephalitogenic: as few as 5×10^5 cells could induced disease in naïve Lewis rats. In a typical experiment, a group of 5 female Lewis rats, approximately 9 weeks old, weighing 110±15 grams was anesthetized with diethyl ether and implanted with mini-osmotic pumps (Alzet 2002, Alza Corp., Palo Alto Calif., USA) containing 1-(2,4,-diimethyl phenyl)-6-phosphono-mannoside dissolved in normal saline at a concentration that delivered the drug at a rate of 45 mg/kg/day. A second group of 5 control animals were implanted under anesthesia with a similar pump containing normal saline. Just prior to recovering from the anesthetic, each animal received 5×10^5 cells of the above encephalitogenic T cell line iv in 0.2 ml of normal saline. […] The severity of EAE for each group of rats was calculated as a Disease Index (DI) which is (for those animals developing disease): [formula] This calculation allows a more complete assessment of the disease by incorporating both speed of onset and clinical severity and duration of the disease. […] In an identically designed experiment, rats were sacrificed on day 6 after T lymphocyte transfer and their spinal cords were harvested for histological assessment. Rats were deeply anesthetized (Nembutal) and perfused with 30 ml saline followed by 60 ml 10% neutral buffered formalin. Spinal cords were removed, fixed for 7 days in 10% formalin and embedded for sectioning. […]

In test [2] the test system is picryl chloride-sensitized T lymphocyte migration into the right ear pinna. Put plainly: Inhibition of T lymphocyte migration into extralymphatic tissue (picryl chloride-painted ear pinna) in vivo. Details: species or system Balb/c mice. To be noted: 5 mg/mouse IV; 9-10 hours after cell infusion. The text has this:
The foregoing methods are recognized and well understood by those skilled in the art and the underlying principles can be found in any immunology textbook such as those cited above. Here donor animals are sensitized to a self protein (in practice, skin is the easiest tissue to use) by chemically modifying the protein(s) in this tissue thereby allowing the chemical moiety to be ‘seen’ as ‘foreign’ tissue by the immune system. This is done by reacting the skin (“painting”) with a ‘hapten’ which is usually an alkylating or arylating agent that reacts covalently with and thereby modifies protein(s) in the skin. Seven to ten days following sensitization, spleens or draining LNs are taken from the donor animals. […] Within a short time of cell transfer sensitized T cells begin to accumulate in the hapten-modified tissue, 8-24 hours later the tissue can be removed and the cell accumulation assessed. In the case of fluorescently-labeled cells, their accumulation is assessed histologically or histochemically, and in the case of radiolabeled cells, accumulation is assessed by counting radioactive decay in a suitable device. […]
B lymphocytes were depleted as described in Example 3. The enriched lymphocyte population contained approximately 85-90% T lymphocytes and <1% B cells (determined by FACS analysis). […]

The mark [3] stands for this setting: 45 mg/kg/day, vs saline controls.

Where “and” joins values, the source holds several entries; their conditions need not be identical. Equal entries are not always repeated.

In the case of `Cc1ccc(O[C@H]2O[C@H](CCP(=O)(O)O)[C@@H](O)[C@H](O)[C@@H]2O)c(C)c1`, the “animals that developed disease” value in test [1] (45 mg/kg/day, control 5/5) is 3/5. The “DI = Group Disease Index” value in test [1] (45 mg/kg/day, control group DI 160) was determined as 40. For the same molecule, the “duration of maximum clinical scores” value in test [1] (45 mg/kg/day, controls two consecutive days) is “none of the 3 drug treated animals that developed symptoms had maximum clinical scores for more than one day”. Also, the disease onset result in test [1] (setting [3]) is on record as “disease onset was delayed”. The disease severity result in test [1] (setting [3]) is listed as “disease severity was lower than that observed in the controls”. In addition, the “Clinical Scores (individual rats)” value in test [1] (Day 4) is 0; in test [1] (Day 5, listed as 1-(2,4,-dimethyl phenyl)-6-phosphono-mannoside, 45 mg/kg/day) it was 1 (3×) and 0 (2×); in test [1] (Day 6, listed as 1-(2,4,-dimethyl phenyl)-6-phosphono-mannoside, 45 mg/kg/day) it was 2 (2×) and 0 (2×) and 1; in test [1] (Day 7, listed as 1-(2,4,-dimethyl phenyl)-6-phosphono-mannoside, 45 mg/kg/day), 0 (3×) and 1 (2×). The “Mean Score” value is on record as 0 in test [1] (Day 4, 45 mg/kg/day); 0.6 in test [1] (Day 5, 45 mg/kg/day); 1 in test [1] (Day 6, 45 mg/kg/day); 0.4 in test [1] (Day 7, 45 mg/kg/day). Besides, the “lesions/section in the most affected animal” value in test [1] (day 6 after T lymphocyte transfer, histology) is reported as “no more than 8 lesions/section”. Also, in test [1] (day 6 after T lymphocyte transfer, histology, control approximately 15 lesions/section), the “average number of spinal cord lesions” value is 3.5 lesions. For the same molecule, the “Percent inhibition of T cell migration (right ear pinna)” value in test [2] was 56.1%.
